Read-outs that look alike come from different tables or passages of the source.
What was measured:
Format in all cases: in vivo
KK-Ay mice = assay: Weight gain-inhibiting action, hypoglycemic effect, insulin in blood plasma lowering action in KK-Ay mice; details: Mus musculus, 336 h, male KK-Ay mice, high fat diet, 30 mg/kg/day oral, 2 weeks
Protocol: To 8 weeks-old male KK-Ay mice were provided high fat diet (Oriental Yeast Co., Ltd, 60 cal % fat), and Test compound suspended in 0.2% carboxymethylcellulose solution was orally administered once a day. Oral administration was continued for 2 weeks, and a weight gain-inhibiting rate of the Test compound was calculated by using a weight gain amount of the solvent control group during the test period as 100%. After final administration, the mice were fasted overnight, and blood was collected from tail vein. Measurement of a blood-sugar level was carried out by using glucose Cα Test Wako (Wako Pure Chemical Industries, Ltd.), and measurement of insulin in blood plasma was carried out by using a mouse insulin measurement kit (Morinaga Institute of Biological Science, Inc.).

C57BL/6J mice = assay: Antifeeding activity (high fat diet intake up to 4 hours); details: Mus musculus, male C57BL/6J mice, 5 mg/kg oral, food ingested up to 4 hours, read-out: Antifeeding rate (5 mg/kg)
ICR mice = assay: Triglyceride (TG) in blood plasma increase-inhibiting action due to lipid administration; details: Mus musculus; male ICR mice, 5 mg/kg oral, lipid (Intralipos 20%) after 30 minutes, plasma TG 2 hours after lipid; read-out: Inhibiting rate of TG-increase in blood plasma (5 mg/kg)
Method in brief: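 Male ICR mice (6–9 weeks), fasted overnight, dosed orally with compound in 0.2% CMC; oral lipid emulsion (10 mL/kg) 30 min later. Plasma TG from tail vein before and 2 h after lipid load; rise in TG expressed as percent inhibition versus vehicle group.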

[1] = read-out: Hypoglycemic action (30 mg/kg/day)
[2] = read-out: Insulin in blood plasma-lowering action (30 mg/kg/day)
[3] = read-out: Weight gain-inhibiting action (30 mg/kg/day)

SMILES | inhibition in vivo at 30 mg/kg (KK-Ay mice; [1]) [%] | inhibition in vivo at 30 mg/kg (KK-Ay mice; [2]) [%] | inhibition in vivo at 30 mg/kg (KK-Ay mice; [3]) [%] | inhibition in vivo at 5 mg/kg (C57BL/6J mice) [%] | inhibition in vivo at 5 mg/kg (ICR mice) [%]
Cc1cc(OCC2(C(=O)O)CCC2)ccc1-c1ccc(-c2ncc(C(F)(F)F)[nH]2)cn1 [Example 70] | 52 | 27 | 45 | 59 | 67
Cc1cc(OCC(C)(C)C(=O)O)ncc1-c1ccc(-c2ncc(C(F)(F)F)[nH]2)cn1 [Example 72] | 38 | 28 | 43 | 65 | 85
Cc1cc(OCC(C)(C)C(=O)O)ncc1-c1ccc(-c2ncc(C(F)(F)F)[nH]2)cc1 [Example 73] | 40 | 69 | 62 | 82 | 88
Cc1nc(OCC(C)(C)C(=O)O)ccc1-c1ccc(-c2ncc(C(F)(F)F)[nH]2)cc1 [Example 74] | 56 | 51 | 47 | 60 | 50
CC(C)(COc1ccc(-c2ccc(-c3ncc(C(F)(F)F)[nH]3)c(F)c2)cn1)C(=O)O [Example 76] | 65 | 81 | 69 | 61 | 78
Cc1cc(OCC(C)(C)C(=O)O)ncc1-c1ccc(-c2ncc(C(F)(F)F)[nH]2)c(C)c1 [Example 77] | 60 | 65 | – | 65 | 75
CC(C)(COc1ncc(-c2ccc(-c3ncc(C(F)(F)F)[nH]3)c(F)c2)cc1F)C(=O)O [Example 84] | 65 | 76 | 48 | 64 | 75
CC(C)(COc1ccc(-c2ccc(-c3ncc(C(F)(F)F)[nH]3)nn2)cc1)C(=O)O [Example 87-7), 2,2-dimethyl-3-(4-{6-[4-(trifluoromethyl)-1H-imidazol-2-yl]pyridazin-3-yl}phenoxy)-propanoic acid] | 35 | 19 | 22 | 59 | 57
CC(C)(COc1cnc(-c2ccc(-c3nc(C(F)(F)F)c[nH]3)cc2)cn1)C(=O)O [Example 89-2), 2,2-dimethyl-3-[(5-{4-[4-(trifluoromethyl)-1H-imidazol-2-yl]phenyl}pyrazin-2-yl)oxy]-propanoic acid] | 68 | 88 | 63 | 75 | 52
CC(C)(COc1cnc(-c2ccc(-c3ncc(C(F)(F)F)[nH]3)nc2)cn1)C(=O)O [Example 92] | 63 | 58 | 60 | 66 | 74
Cc1cc(OCC(C)(C)C(=O)O)ncc1-c1cnc(-c2ncc(C(F)(F)F)[nH]2)cn1 [Example 95-6), 2,2-dimethyl-3-[(4-methyl-5-{5-[5-(trifluoromethyl)-1H-imidazol-2-yl]pyrazin-2-yl}pyridin-2-yl)oxy]propanoic acid] | 66 | 58 | 75 | 83 | 70
Cc1cc(OCC(C)(C)C(=O)O)ncc1-c1ccc(-c2ncc(CC3CC3)[nH]2)c(F)c1 [Example 96-2), 3-[(5-{4-[5-(cyclopropylmethyl)-1H-imidazol-2-yl]-3-fluorophenyl}-4-methylpyridin-2-yl)oxy]-2,2-dimethylpropanoic acid] | 66 | 71 | 75 | 58 | 48
Cc1cc(OCC(C)(C)C(=O)O)ncc1-c1cnc(-c2ncc(C(F)(F)F)[nH]2)c(F)c1 [Example 107] | 57 | 58 | 48 | 57 | 62
Cc1cc(OCC(C)(C)C(=O)O)ncc1-c1cnc(-c2ncc(C(F)(F)F)[nH]2)c(Cl)c1 [Example 112] | 49 | 61 | 47 | 52 | 67
Cc1cc(OCC(C)(C)C(=O)O)ncc1-c1cnc(-c2ncc(C(F)(F)F)[nH]2)c(C)c1 [Example 114] | 48 | 60 | 45 | 59 | 64
Cc1cc(OCC(C)(C)C(=O)O)ncc1-c1ccc(-c2ncc(CC(C)C)[nH]2)nc1 [Example 117] | 36 | 35 | 31 | 55 | 57
Cc1cc(OCC(C)(C)C(=O)O)ncc1-c1ccc(-c2ncc(CC(C)C)[nH]2)c(F)c1 [Example 119] | 40 | 28 | 36 | 51 | 67

From patent US9302996B2, “Continuous arycyclic compound” (MITSUBISHI TANABE PHARMA CORPORATION, priority 2010, dated 2016)
